From PubChem BioAssay (NCI)
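Each compound was tested at five concentrations against cells in 96-well plates for 48 hours. TGI is the concentration that stops growth completely.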

What was measured:
Assay in all cases: growth of human tumour cells (NCI), 48 h
[1] = tested on: T-47D breast
[2] = tested on: MDA-MB-231 breast
[3] = tested on: 786-0 renal
[4] = tested on: SF-539 CNS
[5] = tested on: K-562 leukemia
[6] = tested on: HT29 colon
[7] = tested on: UACC-257 melanoma
[8] = tested on: RPMI-8226 leukemia
[9] = tested on: KM12 colon
[10] = tested on: HCT-116 colon
[11] = tested on: OVCAR-4 ovarian

| Structure (SMILES) | TGI [1] [µM] | TGI [2] [µM] | TGI [3] [µM] | TGI [4] [µM] | TGI [5] [µM] | TGI [6] [µM] | TGI [7] [µM] | TGI [8] [µM] | TGI [9] [µM] | TGI [10] [µM] | TGI [11] [µM] |
| --- | --- | --- | --- | --- | --- | --- | --- | --- | --- | --- | --- |
| CC(N=NNc1ccc(-c2nc3ccccc3[nH]2)cc1)C(=O)O (stereo unspecified) | > 100 | > 100 | 89.9 | > 100 | > 100 | > 100 | > 100 | > 100 | > 100 | > 100 | > 100 |
| COC(=O)C1=C(O)C(C(=O)OC)C2CC(=O)CC1C2(C)C (stereo unspecified) | > 100 | > 100 | > 100 | > 100 | > 100 | > 100 | > 100 | > 100 | > 100 | > 100 | > 100 |
| c1ccc(/C(=N/Nc2nc3ccccc3s2)C2CCCCC2)nc1 | 15.5 | 27.3 | 21.9 | 27.5 | 70 | 16.1 | 17.5 | 21.9 | 29.6 | 14.8 | 22.3 |
| O=C(O)CCc1nc2c(n1-c1ccccc1)C(=O)c1ccccc1C2=O | > 100 | > 100 | > 100 | > 100 | > 100 | > 100 | > 100 | > 100 | > 100 | > 100 | > 100 |
| C=CCOC(=O)N1c2ccc(O[Si](C)(C)C(C)(C)C)cc2[C@@]23O[C@@]24[C@@H]1C#C/C=C\C#C[C@]3(O)C(OC)(OC)C[C@@H]4C | > 100 | > 100 | > 100 | > 100 | > 100 | > 100 | > 100 | > 100 | > 100 | > 100 | > 100 |
| CC1CC[C@@]2(OC1)OC1C[C@H]3[C@@H]4CC=C5CC(OC6OC(CO)C(OC7OC(CO)C(O)C(OC8OCC(O)C(O)C8O)C7OC7OC(CO)C(OC8OC(C)C(OC9OC(C)C(O)C(O)C9O)C(O)C8O)C(O)C7O)C(O)C6O)CCC5(C)[C@H]4CCC3(C)C1[C@@H]2C (stereo partly specified) | 20.2 | 11.9 | 10.3 | 12.7 | 19.6 | 15.4 | 18.1 | 25 | 17.7 | 15.3 | 12.8 |
